Laboratory results reported in patent US11692167B2, “Chemically defined serum replacements for cell culture” (Montana State University, priority 2021, dated 2023).

Assays:
[1] = spectrophotometric assay using phenolphthalein indicator to determine complexation efficiency of lipids with cyclodextrins; format: physicochemical; settings: extrapolated from free phenolphthalein absorbance
Description: Solubilized lipids were evaluated by spectrophotometric assay using Phenolphthalein, which is known to occupy the complexing reagents used for five hydrophobic nutrients used in chemically defined mixes. Phenolphthalein is known to be displaced from the reagent when a hydrophobic moiety is complexed, so the concentration of occupied reagents was extrapolated from coloration indicating concentration of free phenolphthalein in solution when a known amount of solubilized nutrient was dosed with a known quantity of Phenolphthalein. […] Phenolphthalein is colored when free in solution at pH 8+. It readily complexes with cyclodextrins of all types and is colorless when complexed. It is preferentially displaced by more hydrophobic molecules, so when added to a known concentration of complexed lipids, the absorbance can determine how much free phenolphthalein is present, and therefore how many free cyclodextrins are present. Since the stoichiometry of mixing is 1:1, the concentration of cyclodextrins that are free to interact with Phenolphthalein logically equals the concentration of free lipid in solution.

[2] = system: HFF cells; experiment: Design of Experiments two-factor interaction on HFF cells (cell numbers/mL); format: cell-based, human; settings: culture for 5 days
Description: Optimization of mixes is achieved using Design of Experiments (DoE) computer-based design and analysis protocols. Experiments are computer designed according to number of variables to test, and serial dilutions of those variables. Results are able to indicate two factor interactions. […] This enables the optimization of many interdependent nutrients using maxima and repeat application. […] Vertical axes reflect cell numbers/mL after culture for 5 days. Horizontal axes correspond to increasing concentration of indicated lipids.

CCCCCCCC/C=C\CCCCCCCC(=O)O [oleic acid]
free lipid concentration in solution relative to critical micelle concentration (literature level) [1]: greater than the literature level

CCCCCC/C=C\CCCCCCCC(=O)O [PA, palmitoleic acid]
two-factor interaction with PT (palmitate) on cell numbers/mL ([2]; FIG. 8A): agonistic relationship
two-factor interaction with α linolenic acid (ALA) on cell numbers/mL ([2]; FIG. 8B): antagonist relationship
